From BindingDB's records for doi:10.7270/Q23F4N3R (Burnham Center For Chemical Genomics, 2011)

Experiment: HK1 enzyme inhibitors – biochemical, selectivity assay for HKDC1 inhibitor project, dose response (AID 504763)
[1] = inactive by the depositor's call

SMILES	IC50 [1]	IC50
Cc1oc2c(c1C(=O)c1ccc(Cl)cc1)C(=O)C(=O)c1ccccc1-2 [3-(4-Chloro-benzoyl)-2-methyl-naphtho[1,2-b]furan-4,5-dione]	40 µM	–
COc1ccc(C(=O)c2coc3c2C(=O)C(=O)c2ccccc2-3)cc1 [3-(4-Methoxy-benzoyl)-naphtho[1,2-b]furan-4,5-dione]	27.2 µM	–
COCc1cc(C2C(C(=O)c3ccco3)C(=O)C(=O)N2CCOCCO)ccc1O (stereo unspecified) [3-(furan-2-carbonyl)-4-hydroxy-1-[2-(2-hydroxyethoxy)ethyl]-2-[4-hydroxy-3-(methoxymethyl)phenyl]-2H-pyrrol-5-one]	–	> 80 µM
O=C1C(=O)c2c(C(=O)c3ccccc3)coc2-c2ccccc21 [3-(phenylcarbonyl)benzo[g][1]benzofuran-4,5-dione]	–	> 80 µM
CCCCNC(=O)c1sc(=S)n2c1[nH]c(=O)c1ccc(C(=O)NCCc3ccc(OC)c(OC)c3)cc12 [3-N-butyl-8-N-[2-(3,4-dimethoxyphenyl)ethyl]-5-oxo-1-sulfanylidene-4H-[1,3]thiazolo[3,4-a]quinazoline-3,8-dicarboxamide]	21.2 µM	–
Cc1ccc(S(=O)(=O)N=C2C=C(Nc3cccc(C(=O)O)c3)C(=O)c3ccccc32)c(C)c1 [3-[[(4E)-4-(2,4-dimethylphenyl)sulfonylimino-1-oxo-2-naphthalenyl]amino]benzoic acid]	–	11 µM
O=C1C=C(c2c(O)ccc3ccccc23)c2ccccc2C1=O [4-(2-hydroxy-1-naphthalenyl)naphthalene-1,2-dione]	–	5.1 µM
Cc1ccc(S(=O)(=O)N=C2C=C(Sc3nnc[nH]3)C(=O)c3ccccc32)cc1 [4-Methyl-N-[4-oxo-3-(2H-[1,2,4]triazol-3-ylsulfanyl)-4H-naphthalen-1-ylidene]-benzenesulfonamide]	–	3.29 µM
CCN(CC)CCNc1cc(C)nc2c1C(=O)C(=O)C=C2N1CCCCC1 [4-[2-(diethylamino)ethylamino]-2-methyl-8-piperidin-1-yl-quinoline-5,6-dione]	38.3 µM	–
CCOc1ccc(/C=C2/SC(=S)N(CCC(=O)Nc3ccc(C(=O)O)cc3)C2=O)cc1 [4-[3-[(5E)-5-[(4-ethoxyphenyl)methylidene]-4-oxo-2-sulfanylidene-1,3-thiazolidin-3-yl]propanoylamino]benzoic acid]	–	> 80 µM
Cc1cc(Oc2ccc(C(C)(C)C)cc2)nc(N2CCOCC2)n1 [4-[4-(4-tert-butylphenoxy)-6-methylpyrimidin-2-yl]morpholine]	–	> 80 µM
COC(=O)c1ccc(NCc2cc(O)ccc2O)cc1 [4-[(2,5-dihydroxyphenyl)methylamino]benzoic acid methyl ester]	21.3 µM	–
Cc1ccccc1NC1=CC(=NS(=O)(=O)c2ccc(C(=O)O)cc2)c2ccccc2C1=O [4-[(E)-[3-(2-methylanilino)-4-oxonaphthalen-1-ylidene]amino]sulfonylbenzoic acid]	–	2.84 µM
CCN(CC)c1ccc2c(c1)oc(=O)c1c(Cl)cc(=O)oc12 [4-chloranyl-8-(diethylamino)pyrano[3,2-c]chromene-2,5-dione]	55.4 µM	–
CC(C)c1ccc(S(=O)(=O)N=C2C=C(Sc3nnc[nH]3)C(=O)c3ccccc32)cc1 [4-isopropyl-N-[(1Z)-4-oxo-3-(1H-1,2,4-triazol-3-ylthio)naphthalen-1(4H)-ylidene]benzenesulfonamide]	–	5.87 µM
COc1ccc(S(=O)(=O)Nc2ccc(O)c3ccccc23)cc1 [4-methoxy-N-(4-oxidanylnaphthalen-1-yl)benzenesulfonamide]	–	> 80 µM
Cc1ccc(S(=O)(=O)Nc2c(O)ccc3ccccc23)cc1 [4-methyl-N-(2-oxidanylnaphthalen-1-yl)benzenesulfonamide]	27.4 µM	–
O=C1C=C(N2CCCCC2)c2ccccc2C1=O [4-piperidin-1-ylnaphthalene-1,2-dione]	–	2.39 µM
CC1=NOC(=O)/C1=C\c1ccc(-c2ccc(Cl)cc2Cl)o1 [4-{[5-(2,4-dichlorophenyl)-2-furyl]methylene}-3-methyl-5(4H)-isoxazolone]	–	> 80 µM
Cc1cc(C)n2nc(SCc3nnc(SCc4ccccc4C)s3)nc2n1 [5,7-dimethyl-2-[({5-[(2-methylbenzyl)sulfanyl]-1,3,4-thiadiazol-2-yl}methyl)sulfanyl][1,2,4]triazolo[1,5-a]pyrimidine]	–	3.71 µM
O=C1C=CC(=O)c2c(O)c(CO)c(CO)c(O)c21 [5,8-dihydroxy-6,7-bis(hydroxymethyl)naphthalene-1,4-dione]	–	> 80 µM

SMILES	IC50 [1]	IC50
CCC(c1ccccc1)C(CC)c1cc(O)c(O)c(O)c1 (stereo unspecified) [5-(4-phenylhexan-3-yl)benzene-1,2,3-triol]	–	> 80 µM
Cc1cccc(N2C(=O)NC(=O)C(=Cc3ccc4c(c3)CCCN4Cc3ccccc3)C2=O)c1 [5-[1-(1-Benzyl-1,2,3,4-tetrahydro-quinolin-6-yl)-meth-(E)-ylidene]-1-m-tolyl-pyrimidine-2,4,6-trione]	–	> 80 µM
COC1=C(Br)C(=O)c2ncccc2C1=O [7-bromo-6-methoxyquinoline-5,8-dione]	–	4.89 µM
COc1ccc2[nH]c3c4c(ccc3c2c1)C(=O)C=CC4=O [8-methoxy-11H-benzo[a]carbazole-1,4-dione]	–	> 80 µM
COc1cc2c(cc1OC)-c1cc(NCc3ccccn3)nc(=O)n1CC2 [9,10-dimethoxy-2-(2-pyridinylmethylamino)-6,7-dihydropyrimido[6,1-a]isoquinolin-4-one]	67.4 µM	–
Cc1ccc(C)c(-n2c3nc(=O)[nH]c(=O)c-3cc3cc([N+](=O)[O-])ccc32)c1 [10-(2,5-Dimethyl-phenyl)-7-nitro-10H-pyrimido[4,5-b]quinoline-2,4-dione]	–	> 80 µM
COc1ccc(N2C3=C(CC4=C2CCCC4=O)C(=O)CCC3)cc1 [10-(4-methoxyphenyl)-3,4,6,7,9,10-hexahydro-1,8(2H,5H)-acridinedione]	24 µM	–
Cc1ccc(-n2c3nc(=O)[nH]c(=O)c-3cc3cc([N+](=O)[O-])ccc32)cc1 [10-(4-methylphenyl)-7-nitropyrimido[4,5-b]quinoline-2,4-dione]	–	19.4 µM
Cc1nc(COC(=O)c2cc(O)c3ccccc3c2O)cs1 [(2-methyl-1,3-thiazol-4-yl)methyl 1,4-bis(oxidanyl)naphthalene-2-carboxylate]	25 µM	–
COC1=CC(/C=C(\C#N)c2nc3ccc(C)cc3[nH]2)C=C([N+](=O)[O-])C1=O (stereo unspecified) [(2Z,3E)-3-(3-methoxy-5-nitro-4-oxocyclohexa-2,5-dien-1-ylidene)-2-(5-methyl-1,3-dihydrobenzimidazol-2-ylidene)propanenitrile]	–	18 µM
COC(=O)[C@@H]1[C@@H](C(=O)OC)C2(c3ccccc3-c3ccccc32)N(c2ccc(Cl)cc2)N1C#N [(3'S,4'R)-1'-(4-chlorophenyl)-2'-cyanospiro[fluorene-9,5'-pyrazolidine]-3',4'-dicarboxylic acid dimethyl ester]	–	> 80 µM
O=C(C=Cc1ccc(Br)cc1)NC(=S)Nc1ccc(S(=O)(=O)Nc2nccs2)cc1 [(E)-3-(4-bromophenyl)-N-[[4-(1,3-thiazol-2-ylsulfamoyl)phenyl]carbamothioyl]prop-2-enamide]	–	> 80 µM
CNCc1ccccc1Sc1cc(O)ccc1O [(Z)-2-butenedioic acid;2-[[2-(methylaminomethyl)phenyl]thio]benzene-1,4-diol]	–	4.58 µM
CCCCC[C@H](O)/C=C/[C@@H]1[C@@H](C/C=C\CCCC(=O)OC)[C@@H](O)C[C@H]1O [MLS000028823]	–	> 80 µM
CCCc1nc2oc3c(NCC4CCCO4)ncnc3c2c2c1COC(C)(C)C2 (stereo unspecified) [MLS000042555]	31.6 µM	–
CC(C)c1nc2oc3c(NCC4CCCO4)ncnc3c2c2c1COC(C)(C)C2 (stereo unspecified) [MLS000084034]	–	2.36 µM
COc1ncnc2c1oc1nc(C(C)C)c3c(c12)CC(C)(C)OC3 [MLS000084533]	–	12.5 µM
N#Cc1ccc(CSc2nnc(NC(=O)c3ccc4ncsc4c3)s2)cc1 [MLS000334839]	–	> 80 µM
O=C1C(Nc2ccccc2)=CC(=NS(=O)(=O)c2cccs2)c2ccccc21 [MLS000374486]	–	6.56 µM
CC(C)Nc1nnc(SCC(=O)Nc2ccc3c(c2)C(=O)c2ccccc2C3=O)s1 [MLS000390413]	22.3 µM	–
O=C1c2ccccc2-c2onc3ccc(Oc4ccccc4)c1c23 [MLS000525578]	–	> 80 µM

SMILES	IC50 [1]	IC50
O=[N+]([O-])c1ccc(Sc2nc3ccccc3o2)c([N+](=O)[O-])c1 [MLS000532050]	–	> 80 µM
O=C1C(Cl)=C(N2CCCCC2)C(=O)C(Cl)=C1c1cnc(N2CCCCC2)s1 [MLS000550549]	71.6 µM	–
CCCc1nc2oc3c(OC)ncnc3c2c2c1COC(C)(C)C2 [MLS000559436]	–	18.5 µM
COc1cc2c(cc1OC)-c1c(OC)c(OC)c(OC)c3ccnc(c13)C2=O [MLS000574936]	–	10.1 µM
COc1cc(/C=C2\SC(c3ccc(C)cc3)=NC2=O)ccc1O [MLS000579809]	–	> 80 µM
COc1cc(C2c3c([nH]c(=O)[nH]c3=O)Nc3ccc4ccccc4c32)cc(OC)c1OC (stereo unspecified) [MLS000663320]	–	> 80 µM
O=c1c2ccccc2nc(/C=C/c2cccnc2)n1Cc1ccccc1 [MLS000709026]	–	> 80 µM
Cc1nc([N+](=O)[O-])c(Br)n1Cc1ccc(Cl)c(Cl)c1 [MLS000730654]	–	> 80 µM
Cc1ccc(SC2=C(Sc3ccc(C)cc3)C(=O)c3ccccc3C2=O)cc1 [MLS000756557]	–	20 µM
O=C1C(Nc2ccc(O)cc2)=CC(=NS(=O)(=O)c2cccs2)c2ccccc21 [MLS000775432]	–	6.28 µM
CCc1nc2sc3c(O)ncnc3c2c2c1CSC(C)(C)C2 [MLS000776813]	–	21.8 µM
CC(C)c1nc2oc3c(O)ncnc3c2c2c1COC(C)(C)C2 [MLS000779024]	–	5.26 µM
Cc1cc(C)c(S(=O)(=O)N=C2C=C(Nc3ccc(C(=O)O)cc3)C(=O)c3ccccc32)c(C)c1 [MLS000948031]	27.3 µM	–
Cc1ccc(S(=O)(=O)N=C2C=C(Nc3cccc(C(=O)O)c3)C(=O)c3ccccc32)cc1 [MLS000948051]	–	6.79 µM
CCOC(=O)CSc1nc2ccc(C)cc2n2cnnc12 [MLS000999625]	–	12.9 µM
O=Cc1[nH]c2ccccc2c1N(C(=O)CCl)c1ccccc1 [MLS001029456]	–	> 80 µM
O=C(/C=C/c1ccco1)NCC(=O)NNC1=c2ccccc2=NC1=O [MLS001075666]	–	> 80 µM
N#CC(C(=O)CCl)c1nc2c(s1)CCc1ccccc1-2 (stereo unspecified) [MLS001171530]	–	38.3 µM
CC(=O)N(C1=C(Cl)C(=O)c2ccccc2C1=O)c1ccc(C(=O)O)cc1 [MLS001196720]	–	8.68 µM
